Experimental data published in US8030327B2 (MDS K.K., priority 2004, dated 2011).

Columns and labels:
HeLaS3 cells = assay: PLK1 inhibitory activity at cellular level: M phase arrest by phospho-histone H3 (Ser10) immunofluorescence; assay type: cell-based, human; conditions: HeLaS3 cells synchronized at G1/S; 12 hours after addition; concentration inducing 50% of maximum ratio of cells arrested at M phase
Method: For the measurement of the PLK 1 inhibitory activity of the compound at the cellular level, human uterine cervix cell lines HeLaS3 cells were used. The HeLaS3 cell was obtained from American Type Culture Collection (ATTC), and cultured in a CO2-incubator of saturated steam, in the presence of 5% CO2, by using Dulbecco's Modified Eagle's Medium containing 10% fetal calf serum at 37° C.
It has been reported that PLK 1 plays an important role in various stages of mitotic phase (M-phase) in mammalian cells (Nature Review Molecular Cell Biology (Nat. Rev. Mol. Cell. Biol.), Vol. 5, 429, (2004)). In fact, when the mammalian cells are treated with PLK 1 siRNA to control the expression level, the cell cycle progression is inhibited and thus the cell is arrested at M phase. In addition, when examining the phosphorylation level of serine (10th residue on histone H3) which is thought to be required for a chromosome condensation in M phase, is examined, it is observed that the level is enhanced to a high level. Thus, after treating the cell with the compound according to the invention, the phosphorylation level of histone H3 was examined by the indirect fluorescent antibody technique, the cells arrested at M phase were identified by using the level thereof as an indicator to analyze the ratio of cells arrested at M phase, and then EC50 value of each compound was calculated to evaluate the PLK 1 inhibitory activity at a cellular level.
First, HeLaS3 cells synchronized at the G1/S phase by the double-thymidine method were seeded into a lysine-treated 96-well plate (Falcon Corp.) in the ratio of 8,000 per one well, and allowed to stand still in the above-mentioned CO2 incubator. 4 hours after the seeding, the compound according to the invention, which is diluted in series, was added into each well of the plate, and further allowed to stand still in the CO2 incubator. 12 hours after the addition of the compound according to the invention, the culture medium containing the compound according to the invention in each well of the plate was removed, and then 100 μL of ice-cold 100% methanol (Wako Pure Chemical Industries, Ltd.) was added, to carry out cell fixation for 10 minutes and treatment for increasing the membrane permeability. Subsequently, to the wells in which the methanol was removed, 50 μL of 1% BSA/PBS was added, and then blocking was carried out for 30 minutes. Thereafter, for the primary antibody reaction, 50 μL of 1% BSA/PBS containing a 2.5 mg/mL Anti-phospho Histone H3 (Ser10) antibody (Upstate Corp.) was added, and the plate was left over at room temperature for 90 minutes. After terminating the reaction, each well was once washed with PBS, and for the second antibody reaction, 50 μL of 1% BSA/PBS containing 1.5 mg/mL Cy5-labelled anti-rabbit IgG (H+ L) antibody (Chemicon) and 10 ug/mL DAPI (Sigma) which is a nucleus staining regent, was added to the wells, and further left over at room temperature for 90 minutes. After terminating the reaction, the reaction solution in wells was removed and replaced with 100 μL of PBS, and then fluorescence images were captured by using IN Cell Analyzer 1000 (manufactured by GE Amersham) to analyze the ratio of the cells arrested at M phase (Mitotic index) in each view.

full-length human PLK1 = target: T1, full-length human PLK1 (Homo sapiens, UniProt P53350); assay: Measurement of PLK1 activity (33P-ATP, phosphocellulose filter); assay type: biochemical; conditions: 50 μM substrate peptide, 50 μM ATP, 25° C., 20 minutes, read-out: PLK1 inhibitory activity
T1 construct: a baculovirus expressing full-length human PLK1; GST (glutathione S-transferase) (N, cleaved yes); made in house; host or cells: Spodoptera frugiperda Sf9 insect cells (baculovirus)
T1 sequence (P53350 whole entry): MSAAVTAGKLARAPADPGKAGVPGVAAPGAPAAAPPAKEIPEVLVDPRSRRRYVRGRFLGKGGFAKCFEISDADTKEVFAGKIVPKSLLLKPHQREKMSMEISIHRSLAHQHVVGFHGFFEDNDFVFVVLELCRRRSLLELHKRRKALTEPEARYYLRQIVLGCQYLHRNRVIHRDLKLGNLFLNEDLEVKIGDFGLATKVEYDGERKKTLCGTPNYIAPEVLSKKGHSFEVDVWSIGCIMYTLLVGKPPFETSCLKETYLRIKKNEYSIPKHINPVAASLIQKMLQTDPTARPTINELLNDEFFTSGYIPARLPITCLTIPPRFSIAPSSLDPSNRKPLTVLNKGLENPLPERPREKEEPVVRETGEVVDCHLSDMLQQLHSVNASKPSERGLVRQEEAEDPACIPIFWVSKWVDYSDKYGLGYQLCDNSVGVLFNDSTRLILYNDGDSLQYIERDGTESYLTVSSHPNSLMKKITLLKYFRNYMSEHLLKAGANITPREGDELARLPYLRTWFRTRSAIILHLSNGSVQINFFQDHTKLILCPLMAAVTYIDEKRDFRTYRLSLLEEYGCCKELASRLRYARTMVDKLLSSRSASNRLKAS
Method: First, a baculovirus expressing full-length human PLK1 of which the N terminus is fused with GST (glutathione S-transferase) was prepared, and then the PLK1 transfected into a Spodoptera frugiperda(Sf)9 insect cell was highly expressed as a GST-fused protein. The cells were recovered and suspended in a lysis buffer (50 mM tris-hydrochloric acid buffer (pH 7.4)/150 mM sodium chloride/1 mM EDTA (ethylenediamine tetraacetic acid)/1 mM dithiothreitol/0.1% polyoxyethylene sorbitan monolaurate) to break open cells with a sonicator, and supernatant was recovered after a centrifugation. The supernatant was reacted on glutathione sepharose beads, and then the beads were washed with a lysis buffer. Thereafter, the beads were reacted in a lysis buffer containing Precision Protease to recover supernatant. […]
The reaction was carried out in accordance with the method of Toyoshima-Morimoto et al. [Nature, Vol. 410, 215-220, (2001)]. […] After washing the phosphocellulose filter with 75 mM phosphate buffer, the filter was dried to measure the radioactivity with a liquid scintillation counter. […]

[1] = target: T2, PLK1-T210D (human active type PLK1) (Homo sapiens, UniProt P53350, T210D); assay: Measurement of PLK1-T210D activity (33P-ATP, phosphocellulose filter); assay type: biochemical; conditions: 50 μM substrate peptide, 50 μM ATP, 25° C., 20 minutes, read-out: PLK1-T210D inhibitory activity
T2 construct: a baculovirus expressing full-length human PLK1; GST (glutathione S-transferase) (N); made in house; host or cells: insect cells (baculovirus)
T2 sequence (P53350 whole entry T210D): as the sequence (P53350 whole entry) above, with T210D counted along it
Method: For the measurement of the PLK1 and PLK1-T210D activity, a synthetic peptide (aspartic acid-glutamic acid leucine-methionine-glutamic acid-alanine-serine-phenylalanine-alanine-aspartic acid-glutamine-aspartic acid-alanine-lysine) in which the serine surrounding sequence of the amino acid sequence No. 198 of CDC25C having been reported as the site for PLK1 substrate [EMBO Report, Vol. 3, 341 (2002)] is altered, was used as a substrate.
The volume of the reaction solution was 21.1 μL and the composition of the reaction buffer was 20 mM tris-hydrochloric acid buffer (pH 7.4)/10 mM magnesium chloride/0.5 mM dithiothreitol/1 mM EGTA (ethylene glycol-bis(beta-aminoethylether)-N,N,N′,N′,-tetraacetic acid). Thereto, purified PLK 1, 50 μM of the substrate peptide, 50 μM of non-labeled adenosine triphosphate (ATP), and 1 μCi of [γ-^33P]-labeled ATP (2000 to 4000 Ci/mmole) were added to carry out the reaction at 25° C. for 20 minutes. Then, 10 μL of 350 mM phosphate buffer was added to the reaction system to terminate the reaction. The resultant solution was spotted onto a multi-screen phosphocellulose filter on a 96-well plate. After washing the phosphocellulose filter with 75 mM phosphate buffer, the filter was dried to measure the radioactivity with a liquid scintillation counter. […]

Row | SMILES | EC50 (HeLaS3 cells) | IC50 (full-length human PLK1) | IC50 [1]
1 | C[C@@H](Oc1nc(-c2cnc3cnc(CS(C)(=O)=O)cn23)sc1C(N)=O)c1ccc(CN(C)C)cc1Cl [Example 236] | 100 nM |  | 
2 | CC(Oc1cc(-c2cnc3ccccn23)sc1C(N)=O)c1ccccc1[N+](=O)[O-] (centres unmarked) [Example 44, 5-imidazo[1,2-a]pyridin-3-yl-3-[1-(2-nitrophenyl)ethoxy]thiophene-2-carboxyamide] | 70 nM | 12 nM | 12 nM
3 | CC(Oc1cc(-c2cnc3cnccn23)sc1C(N)=O)c1ccccc1Cl (centres unmarked) [Example 163] | 660 nM |  | 
4 | CC(Oc1nc(-c2cnc3ccccn23)sc1C(N)=O)c1ccccc1Cl (centres unmarked) [Example 161] | 490 nM |  | 
5 | C[C@@H](Oc1cc(-c2cnc3ccc(CN4CCNCC4)cn23)sc1C(N)=O)c1ccccc1Cl [Example 119, 3-[(1R)-1-(2-chlorophenyl)ethoxy]-5-[6-(piperazin-1-ylmethyl)imidazo[1,2-a]pyridin-3-yl]thiophene-2-carboxyamide] | 210 nM | 28 nM | 22 nM

Further lines, results first:

Row | EC50 (HeLaS3 cells) | IC50 (full-length human PLK1) | IC50 [1] | SMILES
6 | 390 nM |  |  | C[C@@H](Oc1cc(-c2cnc3ccc(C#N)cn23)sc1C(N)=O)c1ccc(CNC(C)(C)CO)cc1OC(F)F [Example 188, 5-(6-cyanoimidazo[1,2-a]pyridin-3-yl)-3-[(1R)-1-(2-(difluoromethoxy)-4-{[(2-hydroxy-1,1-dimethylethyl)amino]methyl}phenyl)ethoxy]thiophene-2-carboxyamide]
7 | 360 nM |  |  | C[C@@H](Oc1cc(-c2cnc3ccc(OCCO)cn23)sc1C(N)=O)c1ccccc1Cl [Example 66, 3-[(1R)-1-(2-chlorophenyl)ethoxy]-5-[6-(2-hydroxyethoxy)imidazo[1,2-a]pyridin-3-yl]thiophene-2-carboxyamide]
